# Molecular target: recombinant 17β-HSD13 protein (Homo sapiens (Human), UniProt Q7Z5P4)
# Test: 17β-HSD13 biochemical assay (NAD+/NADH Glo chemiluminescence)
# Settings: 17β-HSD13 50 nM, NAD+ 10 mM, β-estradiol 20 μM, 2 hours room temperature
# Procedure: 17β-HSD13 biochemical assays are generically described in patents WO 2022/020730, WO 2021/003295, and WO 2023/023310. More specifically, recombinant 17β-HSD13 protein was assayed in a buffer containing 200 mM Tris pH 7.5, 0.01% Triton X-100, and 0.02% BSA into a 384-well assay plate. Compounds were incubated with 17β-HSD13 (final 50 nM) and NAD+ (final 10 mM) at room temperature for 1 h prior to substrate addition. The assay reaction was then initiated by addition of β-estradiol (final 20 μM), and the reaction mixture was incubated for 2 hours at room temperature. Product formation was detected with chemiluminescence by adding equal volume of NAD+/NADH Glo reagent (Promega, #G9062) and read on a PHERAstar microplate reader (BMG LABTECH). IC50 values were determined with GraphPad Prism®, where log-transformed concentration values and the inhibition data were fitted to a four-parameter logistic equation. Y=Bottom+(Top−Bottom)/(1+10^((Log IC50−X)*HillSlope)). The original, % control, or % inhibition data are represented by Y along with their minimal (Bottom) and maximal (Top) values. The inhibitor concentration is represented by X, IC50 is the concentration at 50% maximal value, and Hill Slope is the slope factor.
# recombinant 17β-HSD13 protein, sequence (Q7Z5P4 20-300): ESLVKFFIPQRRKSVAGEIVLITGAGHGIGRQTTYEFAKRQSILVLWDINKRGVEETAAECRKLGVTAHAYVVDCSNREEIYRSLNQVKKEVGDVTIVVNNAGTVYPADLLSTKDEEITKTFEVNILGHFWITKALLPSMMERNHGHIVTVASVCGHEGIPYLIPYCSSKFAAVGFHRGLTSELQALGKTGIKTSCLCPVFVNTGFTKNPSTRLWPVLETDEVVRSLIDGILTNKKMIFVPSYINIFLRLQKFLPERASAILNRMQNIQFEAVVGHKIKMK
row,SMILES,IC50 [nM]
1,"O=C1N(CC(F)(F)F)C(=O)C2(CC2)N1Cc1nnc(-c2ccc(F)c(O)n2)s1 [Compound I-73, 4-((5-(5-fluoro-6-hydroxypyridin-2-yl)-1,3,4-thiadiazol-2-yl)methyl)-6-(2,2,2-trifluoroethyl)-4,6-diazaspiro[2.4]heptane-5,7-dione]",1390
2,"O=C1N(Cc2nnc(-c3ccc(F)c(O)c3Cl)s2)C2(CC2)C(=O)N1C1(c2ccccc2)CC1 [Compound I-103, 4-((5-(2-chloro-4-fluoro-3-hydroxyphenyl)-1,3,4-thiadiazol-2-yl)methyl)-6-(1-phenylcyclopropyl)-4,6-diazaspiro[2.4]heptane-5,7-dione]",4.39
3,"CCN1C(=O)N(Cc2nnc(-c3ccc(F)c(O)c3F)s2)C2(CCC2)C1=O [Compound I-1, 5-((5-(2,4-difluoro-3-hydroxyphenyl)-1,3,4-thiadiazol-2-yl)methyl)-7-ethyl-5,7-diazaspiro[3.4]octane-6,8-dione]",56.7
4,"O=C1N(CC(F)(F)F)C(=O)C2(CC2)N1Cc1nnc(-c2cc(C(F)(F)F)cc(O)c2F)s1 [Compound I-39, 4-((5-(2-fluoro-3-hydroxy-5-(trifluoromethyl)phenyl)-1,3,4-thiadiazol-2-yl)methyl)-6-(2,2,2-trifluoroethyl)-4,6-diazaspiro[2.4]heptane-5,7-dione]",8.45
5,"O=C1N(CC(F)(F)F)C(=O)C2(CC2)N1Cc1nnc(-c2cc(C3CC3)c(F)c(O)c2F)s1 [Compound I-62, 4-((5-(5-cyclopropyl-2,4-difluoro-3-hydroxyphenyl)-1,3,4-thiadiazol-2-yl)methyl)-6-(2,2,2-trifluoroethyl)-4,6-diazaspiro[2.4]heptane-5,7-dione]",84.9
6,"CC#CC(N1C(=O)N(Cc2nnc(-c3ccc(F)c(O)c3F)s2)C2(CC2)C1=O)C(F)(F)F (stereo not shown) [Compound I-94, 4-((5-(2,4-difluoro-3-hydroxyphenyl)-1,3,4-thiadiazol-2-yl)methyl)-6-(1,1,1-trifluoropent-3-yn-2-yl)-4,6-diazaspiro[2.4]heptane-5,7-dione]",6.77
7,"C[C@@H](CO)N1C(=O)N(Cc2nnc(-c3ccc(F)c(O)c3F)s2)C2(CC2)C1=O [Compound I-47, (S)-4-((5-(2,4-difluoro-3-hydroxyphenyl)-1,3,4-thiadiazol-2-yl)methyl)-6-(1-hydroxypropan-2-yl)-4,6-diazaspiro[2.4]heptane-5,7-dione]",53
8,"CCN1C(=O)N(Cc2nnc(-c3ccc(F)c(O)c3F)s2)C(C)(C)C1=O [Compound I-8, 1-((5-(2,4-difluoro-3-hydroxyphenyl)-1,3,4-thiadiazol-2-yl)methyl)-3-ethyl-5,5-dimethylimidazolidine-2,4-dione]",90.8
9,"CNC(=O)c1ccc(CN2C(=O)N(Cc3nnc(-c4ccc(F)c(O)c4F)s3)C3(CC3)C2=O)cc1 [Compound I-93, 4-((4-((5-(2,4-difluoro-3-hydroxyphenyl)-1,3,4-thiadiazol-2-yl)methyl)-5,7-dioxo-4,6-diazaspiro[2.4]heptan-6-yl)methyl)-N-methylbenzamide]",75.4
10,"N#Cc1ccccc1CN1C(=O)N(Cc2nnc(-c3ccc(F)c(O)c3Cl)s2)C2(CC2)C1=O [Compound I-38, 2-((4-((5-(2-chloro-4-fluoro-3-hydroxyphenyl)-1,3,4-thiadiazol-2-yl)methyl)-5,7-dioxo-4,6-diazaspiro[2.4]heptan-6-yl)methyl)benzonitrile]",39.4
11,"O=C1N(C(c2ccccc2)c2ccccc2)C(=O)C2(CC2)N1Cc1nnc(-c2ccc(F)c(O)c2F)s1 [Compound I-95, 6-benzhydryl-4-((5-(2,4-difluoro-3-hydroxyphenyl)-1,3,4-thiadiazol-2-yl)methyl)-4,6-diazaspiro[2.4]heptane-5,7-dione]",62

# The remaining compounds from weak to strong by IC50, led by results:
row,IC50 [nM],SMILES
1,2960,"O=C1N(CC(F)(F)F)C(=O)C2(CC2)N1Cc1nnc(-c2cc(C(F)(F)F)c(F)c(O)n2)s1 [Compound I-60, 4-((5-(5-fluoro-6-hydroxy-4-(trifluoromethyl)pyridin-2-yl)-1,3,4-thiadiazol-2-yl)methyl)-6-(2,2,2-trifluoroethyl)-4,6-diazaspiro[2.4]heptane-5,7-dione]"
2,1030,"O=C(O)CN1C(=O)N(Cc2nnc(-c3ccc(F)c(O)c3Cl)s2)C2(CC2)C1=O [Compound I-45, 2-(4-((5-(2-chloro-4-fluoro-3-hydroxyphenyl)-1,3,4-thiadiazol-2-yl)methyl)-5,7-dioxo-4,6-diazaspiro[2.4]heptan-6-yl)acetic acid]"
3,620,"O=C1N(Cc2ncccn2)C(=O)C2(CC2)N1Cc1nnc(-c2ccc(F)c(O)c2F)s1 [Compound I-21, 4-((5-(2,4-difluoro-3-hydroxyphenyl)-1,3,4-thiadiazol-2-yl)methyl)-6-(pyrimidin-2-ylmethyl)-4,6-diazaspiro[2.4]heptane-5,7-dione]"
4,293,"O=C1N(CC(F)(F)F)C(=O)C2(CC2)N1Cc1nnc(-c2nc(C(F)(F)F)c(F)c(O)c2F)s1 [Compound I-58, 4-((5-(3,5-difluoro-4-hydroxy-6-(trifluoromethyl)pyridin-2-yl)-1,3,4-thiadiazol-2-yl)methyl)-6-(2,2,2-trifluoroethyl)-4,6-diazaspiro[2.4]heptane-5,7-dione]"
5,71.4,"O=C1N(CC(F)(F)F)C(=O)C2(CC2)N1Cc1nnc(-c2ccc(Cl)c(O)c2F)s1 [Compound I-24, 4-((5-(4-chloro-2-fluoro-3-hydroxyphenyl)-1,3,4-thiadiazol-2-yl)methyl)-6-(2,2,2-trifluoroethyl)-4,6-diazaspiro[2.4]heptane-5,7-dione]"
6,32.7,"O=C1N(CCc2ccccc2)C(=O)C2(CC2)N1Cc1nnc(-c2ccc(F)c(O)c2Cl)s1 [Compound I-37, 4-((5-(2-chloro-4-fluoro-3-hydroxyphenyl)-1,3,4-thiadiazol-2-yl)methyl)-6-phenethyl-4,6-diazaspiro[2.4]heptane-5,7-dione]"
7,13.8 ± 2.2,"CCN1C(=O)N(Cc2nnc(-c3cc(C(F)(F)F)cc(O)c3Cl)s2)C2(CC2)C1=O [Compound I-13, 4-((5-(2-chloro-3-hydroxy-5-(trifluoromethyl)phenyl)-1,3,4-thiadiazol-2-yl)methyl)-6-ethyl-4,6-diazaspiro[2.4]heptane-5,7-dione]"
8,8.83,"O=C1N(Cc2ccc(F)cc2F)C(=O)C2(CC2)N1Cc1nnc(-c2ccc(F)c(O)c2Cl)s1 [Compound I-33, 4-((5-(2-chloro-4-fluoro-3-hydroxyphenyl)-1,3,4-thiadiazol-2-yl)methyl)-6-(2,4-difluorobenzyl)-4,6-diazaspiro[2.4]heptane-5,7-dione]"
9,8.43,"O=C1N(C(c2ccc(F)cc2F)C(F)(F)F)C(=O)C2(CC2)N1Cc1nnc(-c2ccc(F)c(O)c2Cl)s1 (single isomer, unassigned) [Compound I-54B]"
10,6.53,"O=C1N([C@@H](c2ccc(F)cc2F)C(F)(F)F)C(=O)C2(CC2)N1Cc1nnc(-c2ccc(F)c(O)c2F)s1 [Compound I-90B, (S)-4-((5-(2,4-difluoro-3-hydroxyphenyl)-1,3,4-thiadiazol-2-yl)methyl)-6-(1-(2,4-difluorophenyl)-2,2,2-trifluoroethyl)-4,6-diazaspiro[2.4]heptane-5,7-dione]"
11,4.07,"CC(C)(C)N1C(=O)N(Cc2nnc(-c3ccc(F)c(O)c3F)s2)C2(CC2)C1=O [Compound I-84, 6-(tert-butyl)-4-((5-(2,4-difluoro-3-hydroxyphenyl)-1,3,4-thiadiazol-2-yl)methyl)-4,6-diazaspiro[2.4]heptane-5,7-dione]"
